Data published in US12344610B2, “APOL1 inhibitors and methods of use” (Maze Therapeutics, Inc., priority 2022, dated 2025).

Tests used:
Assay type in all cases: cell-based
[1] = tested on: HEK293 cells overexpressing APOL1 G2; experiment: APOL1 G2 HEK293 cell rescue assay (reversal of cell death caused by overexpression of APOL1); details: Homo sapiens, HEK293, HEK293 overexpressing APOL1 G2; geometric mean of at least 2 assay runs; † = single assay run
In short: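 EC50 is the half-maximal effective concentration for reversing cell death driven by APOL1 G2 overexpression in HEK293 cells. Reported as geometric mean of at least 2 runs on separate days, each run averaging duplicate wells per plate; some values from a single run.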

[2] = tested on: Trypanosoma brucei Lister 427 VSG221 with APOL1 G2 recombinant protein; experiment: APOL1 G2 trypanosome cell rescue assay (Example B5); details: Trypanosoma brucei, 20 h, read-out: APOL1 G2 Trypanosome Rescue EC50, Trypanosoma brucei Lister 427 VSG221 with APOL1 G2 recombinant protein, 20 hours, CellTiter-Glo; geometric mean of at least 2 assay runs; † = single assay run
In short: (§1)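 Mature APOL1 (residues 28-398, E. coli-expressed, His-tag removed by TEV) was added as a 2 μg/mL solution to T. brucei Lister 427 VSG221 in modified HMI-9 medium at 250 cells/well, with duplicate 11-point 2-fold compound dilutions (0.4% DMSO). After 20 h at 37° C, 5% CO2, viability was read by CellTiter-Glo luminescence.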

[3] = tested on: Trypanosoma brucei Lister 427 VSG221 with APOL1 G1 recombinant protein; experiment: APOL1 G1 trypanosome cell rescue assay (Example B5); details: Trypanosoma brucei, 20 h, read-out: APOL1 G1 Trypanosome Rescue EC50, Trypanosoma brucei Lister 427 VSG221 with APOL1 G1 recombinant protein, 20 hours, CellTiter-Glo; geometric mean of at least 2 assay runs; † = single assay run
In short: as §1

[4] = tested on: Trypanosoma brucei Lister 427 VSG221 with APOL1 G0 recombinant protein; experiment: APOL1 G0 trypanosome cell rescue assay (Example B5); details: Trypanosoma brucei, 20 h, read-out: APOL1 G0 Trypanosome Rescue EC50, Trypanosoma brucei Lister 427 VSG221 with APOL1 G0 recombinant protein, 20 hours, CellTiter-Glo; geometric mean of at least 2 assay runs; † = single assay run
In short: as §1

With `CS(=O)(=O)c1ccc(OCCN2CCC3(CC2)C(=O)Nc2c(C#N)cc(Cl)cc23)cc1` [Compound 9, 5-chloro-1′-[2-(4-methanesulfonylphenoxy)ethyl]-2-oxo-1,2-dihydrospiro[indole-3,4′-piperidine]-7-carbonitrile] the EC50 [1] was 1760 nM, the EC50 [2] was 1320 nM and the EC50 [3] was > 4000 nM. The EC50 [4] was > 4000 nM.
`CS(=O)(=O)CCCn1ncc2cc(OCCN3CCC4(CC3)C(=O)Nc3ccc(Cl)cc34)ccc21` [Compound 14, 5-chloro-1′-(2-{[1-(3-methanesulfonylpropyl)-1H-indazol-5-yl]oxy}ethyl)-1,2-dihydrospiro[indole-3,4′-piperidin]-2-one] gave an EC50 [1] of 130 nM, an EC50 [2] of 127 nM and an EC50 [3] of 488 nM. It also gave an EC50 [4] of 378 nM.
Work on `O=C1Nc2ccc(Cl)cc2C12CCN(CCOc1ccc3c(cnn3C3COC3)c1)CC2` [Compound 15, 5-chloro-1′-(2-{[1-(oxetan-3-yl)-1H-indazol-5-yl]oxy}ethyl)-1,2-dihydrospiro[indole-3,4′-piperidin]-2-one] yielded an EC50 [1] of 124 nM, an EC50 [2] of 124 nM and an EC50 [3] of 342 nM. For the same compound, the EC50 [4] was 336 nM.
With `CC(C)n1ncc2cc(OCCN3CCC4(CC3)C(=O)Nc3ccc(Cl)cc34)ccc21` [Compound 16, 5-chloro-1′-(2-{[1-(propan-2-yl)-1H-indazol-5-yl]oxy}ethyl)-1,2-dihydrospiro[indole-3,4′-piperidin]-2-one] the EC50 [1] was 112 nM, the EC50 [2] was 110 nM and the EC50 [3] was 312 nM. It also gave an EC50 [4] of 267 nM.
`O=C1Nc2ccc(Cl)cc2C12CCN(CCOc1ccc(S(=O)(=O)[C@H]3C[C@@H](O)C3)cc1)CC2` [Compound 17, 5-chloro-1′-[2-(4-{[(cis)-3-hydroxycyclobutyl]sulfonyl}phenoxy)ethyl]-1,2-dihydrospiro[indole-3,4′-piperidin]-2-one] showed an EC50 [1] of 60 nM, an EC50 [2] of 36.7 nM and an EC50 [3] of 148 nM. The EC50 [4] was 108 nM.
Work on `O=C1CCc2cc(OCCN3CCC4(CC3)C(=O)Nc3ccc(Cl)cc34)ccc2N1C1COC1` [Compound 99, 5-chloro-1′-(2-{[1-(oxetan-3-yl)-2-oxo-1,2,3,4-tetrahydroquinolin-6-yl]oxy}ethyl)-1,2-dihydrospiro[indole-3,4′-piperidin]-2-one] yielded an EC50 [1] of 86.5 nM, an EC50 [2] of 90.1 nM and an EC50 [3] of 346 nM. For the same compound, the EC50 [4] was 216 nM.
`CS(=O)(=O)c1ccc(OCCN2CCC3(CC2)C(=O)Nc2ccc(C#N)cc23)cc1C(F)F` [Compound 100, 1′-{2-[3-(difluoromethyl)-4-methanesulfonylphenoxy]ethyl}-2-oxo-1,2-dihydrospiro[indole-3,4′-piperidine]-5-carbonitrile] was tested, and the EC50 [1] was 46.5 nM, the EC50 [2] was 25.9 nM and the EC50 [3] was 113 nM. The EC50 [4] was 63.5 nM.
`CS(=O)(=O)C1(c2ccc(OCCN3CCC4(CC3)C(=O)Nc3ccc(C#N)cc34)cc2)CC1` [Compound 101, 1′-{2-[4-(1-methanesulfonylcyclopropyl)phenoxy]ethyl}-2-oxo-1,2-dihydrospiro[indole-3,4′-piperidine]-5-carbonitrile] gave an EC50 [1] of 49.6 nM, an EC50 [2] of 69.4 nM and an EC50 [3] of 200 nM. For the same compound, the EC50 [4] was 195 nM.
Compound `CS(=O)(=O)C1(c2ccc(OCCN3CCC4(CC3)C(=O)Nc3ccc(Cl)cc34)cc2)CC1` [Compound 102, 5-chloro-1′-{2-[4-(1-methanesulfonylcyclopropyl)phenoxy]ethyl}-1,2-dihydrospiro[indole-3,4′-piperidin]-2-one] has an EC50 [1] of 31.4 nM, an EC50 [2] of 18 nM and an EC50 [3] of 50.5 nM. For the same compound, the EC50 [4] was 47.3 nM.
Compound `CN1c2ccc(OCCN3CCC4(CC3)C(=O)Nc3ccc(Cl)cc34)cc2CCS1(=O)=O` [Compound 103, 6-(2-{5-chloro-2-oxo-1,2-dihydrospiro[indole-3,4′-piperidin]-1′-yl}ethoxy)-1-methyl-3,4-dihydro-1H-2λ^6,1-benzothiazine-2,2-dione] has an EC50 [1] of 49.4 nM, an EC50 [2] of 43.7 nM and an EC50 [3] of 170 nM. It also gave an EC50 [4] of 113 nM.
Work on `CN1c2ccc(OCCN3CCC4(CC3)C(=O)Nc3ccc(C#N)cc34)cc2CCS1(=O)=O` [Compound 104, 1′-{2-[(1-methyl-2,2-dioxo-3,4-dihydro-1H-2λ^6,1-benzothiazin-6-yl)oxy]ethyl}-2-oxo-1,2-dihydrospiro[indole-3,4′-piperidine]-5-carbonitrile] yielded an EC50 [1] of 139 nM, an EC50 [2] of 184 nM and an EC50 [3] of 726 nM. It also gave an EC50 [4] of 583 nM.
With `N#Cc1ccc2c(c1)C1(CCN(CCOc3ccc4c(c3)CCC(=O)N4CC(F)F)CC1)C(=O)N2` [Compound 105, 1′-(2-{[1-(2,2-difluoroethyl)-2-oxo-1,2,3,4-tetrahydroquinolin-6-yl]oxy}ethyl)-2-oxo-1,2-dihydrospiro[indole-3,4′-piperidine]-5-carbonitrile] the EC50 [1] was 40.7 nM, the EC50 [2] was 75.2 nM and the EC50 [3] was 274 nM. The EC50 [4] was 217 nM.
With `O=C1CCc2cc(OCCN3CCC4(CC3)C(=O)Nc3ccc(Cl)cc34)ccc2N1CC(F)F` [Compound 106, 5-chloro-1′-(2-{[1-(2,2-difluoroethyl)-2-oxo-1,2,3,4-tetrahydroquinolin-6-yl]oxy}ethyl)-1,2-dihydrospiro[indole-3,4′-piperidin]-2-one] the EC50 [1] was 33.5 nM, the EC50 [2] was 23.4 nM and the EC50 [3] was 91.8 nM. For the same compound, the EC50 [4] was 69 nM.
For `CS(=O)(=O)c1ccc(OCCN2CCC3(CC2)C(=O)Nc2ccc(C#N)cc23)cc1C(F)(F)F` [Compound 107, 1′-{2-[4-methanesulfonyl-3-(trifluoromethyl)phenoxy]ethyl}-2-oxo-1,2-dihydrospiro[indole-3,4′-piperidine]-5-carbonitrile], the EC50 [1] was 30.8 nM, the EC50 [2] was 23 nM and the EC50 [3] was 93.5 nM. It also gave an EC50 [4] of 57.2 nM.
`CS(=O)(=O)c1ccc(OCCN2CCC3(CC2)C(=O)Nc2ccc(Cl)cc23)cc1C(F)(F)F` [Compound 108, 5-chloro-1′-{2-[4-methanesulfonyl-3-(trifluoromethyl)phenoxy]ethyl}-1,2-dihydrospiro[indole-3,4′-piperidin]-2-one] was tested, and the EC50 [1] was 16.9 nM, the EC50 [2] was 9.22 nM and the EC50 [3] was 30.7 nM. The EC50 [4] was 23.3 nM.
With `CS(=O)(=O)C1(c2ccc(OCCN3CCC4(CC3)C(=O)Nc3ccc(C#N)cc34)cc2)COC1` [Compound 109, 1′-{2-[4-(3-methanesulfonyloxetan-3-yl)phenoxy]ethyl}-2-oxo-1,2-dihydrospiro[indole-3,4′-piperidine]-5-carbonitrile] the EC50 [1] was 96.9 nM, the EC50 [2] was 98 nM and the EC50 [3] was 385 nM. For the same compound, the EC50 [4] was 320 nM.
Compound `Cc1cc(OCCN2CCC3(CC2)C(=O)Nc2ccc(Cl)cc23)ccc1S(C)(=O)=O` [Compound 110, 5-chloro-1′-[2-(4-methanesulfonyl-3-methylphenoxy)ethyl]-1,2-dihydrospiro[indole-3,4′-piperidin]-2-one] has an EC50 [1] of 41.3 nM, an EC50 [2] of 26.1 nM and an EC50 [3] of 87.7 nM. For the same compound, the EC50 [4] was 71.4 nM.
`Cc1cc(OCCN2CCC3(CC2)C(=O)Nc2ccc(C#N)cc23)ccc1S(C)(=O)=O` [Compound 111, 1′-[2-(4-methanesulfonyl-3-methylphenoxy)ethyl]-2-oxo-1,2-dihydrospiro[indole-3,4′-piperidine]-5-carbonitrile] was tested, and the EC50 [1] was 142 nM, the EC50 [2] was 105 nM and the EC50 [3] was 362 nM. It also gave an EC50 [4] of 282 nM.
In the case of `O=C1Nc2ccc(Cl)cc2C12CCN(CCOc1ccc(S(=O)(=O)C(F)F)cc1)CC2` [Compound 112, 5-chloro-1′-[2-(4-difluoromethanesulfonylphenoxy)ethyl]-1,2-dihydrospiro[indole-3,4′-piperidin]-2-one], the EC50 [1] is reported as 47.2 nM, the EC50 [2] is reported as 18.3 nM and the EC50 [3] is reported as 69.6 nM. For the same compound, the EC50 [4] was 58.2 nM.
In the case of `N#Cc1ccc2c(c1)C1(CCN(CCOc3ccc(S(=O)(=O)C(F)F)cc3)CC1)C(=O)N2` [Compound 113, 1′-[2-(4-difluoromethanesulfonylphenoxy)ethyl]-2-oxo-1,2-dihydrospiro[indole-3,4′-piperidine]-5-carbonitrile], the EC50 [1] is reported as 83.6 nM, the EC50 [2] is reported as 46.7 nM and the EC50 [3] is reported as 154 nM. The EC50 [4] was 124 nM.
`O=C1CCc2cc(OCCN3CCC4(CC3)C(=O)Nc3ccc(Cl)cc34)ccc2N1[C@H]1C[C@@H](O)C1` [Compound 114, 5-chloro-1′-[2-({2-oxo-1-[(cis)-3-hydroxycyclobutyl]-1,2,3,4-tetrahydroquinolin-6-yl}oxy)ethyl]-1,2-dihydrospiro[indole-3,4′-piperidin]-2-one] was tested, and the EC50 [1] was 46.5 nM, the EC50 [2] was 38 nM and the EC50 [3] was 104 nM. It also gave an EC50 [4] of 108 nM.
For `CN(c1c(F)cc(OCCN2CCC3(CC2)C(=O)Nc2ccc(Cl)cc23)cc1F)S(C)(=O)=O` [Compound 127, N-[4-(2-{5-chloro-2-oxo-1,2-dihydrospiro[indole-3,4′-piperidin]-1′-yl}ethoxy)-2,6-difluorophenyl]-N-methylmethanesulfonamide], the EC50 [1] was 20.8 nM, the EC50 [2] was 29.4 nM and the EC50 [3] was 83.9 nM. The EC50 [4] was 64.9 nM.
